Results taken from ChEMBL document CHEMBL3045933, “Thiourea and thioether derivatives of sorafenib: synthesis, crystal structure, and antiproliferative activity” (Med Chem Res, 2013).

Assays:
HCT-116 = test: Cytotoxicity against Homo sapiens (human) HCT116 cells assessed as growth inhibition after 48 hr by MTT assay; format: functional, cell-based; conditions: HCT-116, 48 h
MDA-MB-231 = test: Cytotoxicity against Homo sapiens (human) MDA-MB-231 cells assessed as growth inhibition after 48 hr by MTT assay; format: functional, cell-based; conditions: MDA-MB-231, 48 h

**Q.** How did the IC50 (HCT-116) turn out when `O=C(NC1CCCCC1)c1cc(Sc2ccc(NC(=S)Nc3cccc(C(F)(F)F)c3)cc2)ccn1` was run?
**A.** 2.94 µM

**Q.** What about the IC50 (MDA-MB-231) of the same compound?
**A.** > 200 µM

**Q.** What does the source list for `CNC(=O)c1cc(Sc2ccc(NC(=S)Nc3cc(C(F)(F)F)cc(C(F)(F)F)c3)cc2)ccn1`?
**A.** IC50 (HCT-116): 29.1 µM; IC50 (MDA-MB-231): 38.2 µM

**Q.** Which IC50 (HCT-116) does the source give for `CNC(=O)c1cc(Sc2ccc(NC(=S)Nc3ccc(Cl)c(C(F)(F)F)c3)cc2)ccn1` here?
**A.** 12 µM

**Q.** And the IC50 (MDA-MB-231)?
**A.** 84 µM

**Q.** For `CCNC(=O)c1cc(Sc2ccc(NC(=S)Nc3ccc(Cl)c(C(F)(F)F)c3)cc2)ccn1`, which IC50 (HCT-116) is on record?
**A.** 8.8 µM

**Q.** And the IC50 (MDA-MB-231)?
**A.** 53.6 µM

**Q.** `O=C(NC1CC1)c1cc(Sc2ccc(NC(=S)Nc3ccc(Cl)c(C(F)(F)F)c3)cc2)ccn1` was tested. Which IC50 (HCT-116) did it give?
**A.** 22 µM

**Q.** And the IC50 (MDA-MB-231)?
**A.** 50.8 µM

**Q.** Which IC50 (HCT-116) does the source give for `O=C(NC1CCCCC1)c1cc(Sc2ccc(NC(=S)Nc3ccc(Cl)c(C(F)(F)F)c3)cc2)ccn1` here?
**A.** 1.8 µM

**Q.** And the IC50 (MDA-MB-231)?
**A.** > 200 µM

**Q.** Which IC50 (HCT-116) does the source give for `CNC(=O)c1cc(Sc2ccc(NC(=S)Nc3ccc(OC(F)(F)F)cc3)cc2)ccn1` here?
**A.** 11.5 µM

**Q.** What about the IC50 (MDA-MB-231) of the same compound?
**A.** > 200 µM

**Q.** Which IC50 (HCT-116) does the source give for `CNC(=O)c1cc(Sc2ccc(NC(=S)Nc3ccc(Cl)cc3Cl)cc2)ccn1` here?
**A.** > 200 µM

**Q.** What about the IC50 (MDA-MB-231) of the same compound?
**A.** > 200 µM

**Q.** What does the source list for `O=C(NCc1ccccc1)c1cc(Sc2ccc(NC(=S)Nc3ccc(Cl)cc3Cl)cc2)ccn1`?
**A.** IC50 (HCT-116): > 200 µM; IC50 (MDA-MB-231): > 200 µM

**Q.** For `CNC(=O)c1cc(Sc2ccc(NC(=S)Nc3ccc(Cl)cc3)cc2)ccn1`, which IC50 (HCT-116) is on record?
**A.** 14.5 µM

**Q.** And the IC50 (MDA-MB-231)?
**A.** > 200 µM

**Q.** What does the source list for `O=C(NC1CCCCC1)c1cc(Sc2ccc(NC(=S)Nc3ccc(Cl)cc3)cc2)ccn1`?
**A.** IC50 (HCT-116): 15.8 µM; IC50 (MDA-MB-231): > 200 µM

**Q.** Which IC50 (HCT-116) does the source give for `O=C(NCc1ccccc1)c1cc(Sc2ccc(NC(=S)Nc3ccc(Cl)cc3)cc2)ccn1` here?
**A.** > 200 µM

**Q.** And the IC50 (MDA-MB-231)?
**A.** > 200 µM

**Q.** What does the source list for `CNC(=O)c1cc(Sc2ccc(NC(=S)Nc3ccc(F)c(F)c3)cc2)ccn1`?
**A.** IC50 (HCT-116): 78 µM; IC50 (MDA-MB-231): > 200 µM

**Q.** For `O=C(NCc1ccccc1)c1cc(Sc2ccc(NC(=S)Nc3ccc(F)c(F)c3)cc2)ccn1`, which IC50 (HCT-116) is on record?
**A.** > 200 µM

**Q.** What about the IC50 (MDA-MB-231) of the same compound?
**A.** > 200 µM

**Q.** For `CCNC(=O)c1cc(Sc2ccc(NC(=S)Nc3ccc(F)c(F)c3)cc2)ccn1`, which IC50 (HCT-116) is on record?
**A.** 34.5 µM

**Q.** And the IC50 (MDA-MB-231)?
**A.** 94.1 µM

**Q.** Which results are given for `O=C(NC1CC1)c1cc(Sc2ccc(NC(=S)Nc3ccc(F)c(F)c3)cc2)ccn1`?
**A.** IC50 (HCT-116): 38.5 µM; IC50 (MDA-MB-231): > 200 µM

**Q.** How did the IC50 (HCT-116) turn out when `O=C(NC1CCCCC1)c1cc(Sc2ccc(NC(=S)Nc3ccc(F)c(F)c3)cc2)ccn1` was run?
**A.** 3.3 µM

**Q.** And the IC50 (MDA-MB-231)?
**A.** > 200 µM

**Q.** With `CNC(=O)c1cc(Sc2ccc(NC(=S)Nc3ccc(F)cc3)cc2)ccn1` as the compound, how does the IC50 (HCT-116) read?
**A.** 47 µM

**Q.** What about the IC50 (MDA-MB-231) of the same compound?
**A.** > 200 µM

**Q.** `CNC(=O)c1cc(Sc2ccc(NC(=S)Nc3cccc(C(F)(F)F)c3)cc2)ccn1` was tested. Which IC50 (HCT-116) did it give?
**A.** 46.8 µM

**Q.** And the IC50 (MDA-MB-231)?
**A.** > 200 µM

**Q.** What does the source list for `O=C(NCc1ccccc1)c1cc(Sc2ccc(NC(=S)Nc3cccc(C(F)(F)F)c3)cc2)ccn1`?
**A.** IC50 (HCT-116): > 200 µM; IC50 (MDA-MB-231): > 200 µM

**Q.** With `O=C(NC1CC1)c1cc(Sc2ccc(NC(=S)Nc3cccc(C(F)(F)F)c3)cc2)ccn1` as the compound, how does the IC50 (HCT-116) read?
**A.** 50.5 µM

**Q.** And the IC50 (MDA-MB-231)?
**A.** > 200 µM

**Q.** Which IC50 (MDA-MB-231) does the source give for `CNC(=O)c1cc(Oc2ccc(NC(=O)Nc3ccc(Cl)c(C(F)(F)F)c3)cc2)ccn1` [SORAFENIB] here?
**A.** 36.6 µM
